Source: patent US11472771B2, “Process for making amino diaryl ethers and amino diaryl ethers hydrochloride salts” (CELLESTIA BIOTECH AG, priority 2018, dated 2022)

What was measured:
Assay type in all cases: physicochemical
[1] = Forced degradation: solid state with thermal stress
Experimental: Instrumentation: • Light stability chamber: Solarbox 1500e • Oven: Salvis Vacuum drying oven VC-20 • Heating unit: Ikamag RET-GS with IKA ETS SD and stainless steel heating block • Vials: Supelco V-Vials and screw caps with PTFE septa • Gas tight vials: Agilent 10 mL HS-GC clear glass vials and crimp caps with Not applicable PTFE septa • Quartz glass cuvette: Hellma precision cuvette Suprasil, Type 117.100-QS, 10 mm path length, screw capped with silicone septa • HPLC: As described above
The HPLC test method described above was used to determine the assay and purity of 6-(4-(tert-butyl)phenoxy)pyridin-3-amine monohydrochloride before the forced degradation experiments and the area % content of individual impurities and degradation products in the 6-(4-(tert-butyl)phenoxy)pyridin-3-amine monohydrochloride samples obtained from the degradation experiments.
The assay and the purity of 6-(4-(tert-butyl)phenoxy)pyridin-3-amine monohydrochloride were determined using HPLC with UV detection at 220 nm utilizing the area normalization methodology for purity determination and external standard calibration for assay determination. During all experiments the UV spectra from 200 nm to 950 nm have been recorded and also the peak purity of 6-(4-(tert-butyl)phenoxy)pyridin-3-amine monohydrochloride was assessed.
Approximately 20.4 mg and 50.1 mg of 6-(4-(tert-butyl)phenoxy)pyridin-3-amine monohydrochloride were weighed into a Supelco V-Vial. The vial was closed with the screw cap and stored in the heating block of the heating unit operated at 100° C.±5° C. for 20 h (20 mg sample) and 68 h (50 mg sample), respectively.
After storage at 100° C. for the intended time each sample was cooled down to room temperature and the content of the vial was dissolved in about 4 mL of the sample solvent (acetonitrile/water 3:1 v/v). The obtained solution was quantitatively transferred into a 25 mL volumetric flask (20 mg sample), or to a 50 mL volumetric flask (50 mg sample), respectively. […]

[2] = Stability study, storage −20° C.
Experimental: (§1) For 6-(4-(tert-butyl)phenoxy)pyridin-3-amine monohydrochloride two different types of stability studies were performed including short-term and long-term stability studies, respectively, at 25° C. (RH, 60%), −5° C. and −20° C. for 36 months and an accelerated study at 40° C. (RH, 75%) over 6 months. In terms of analytical determinations six tests were involved including appearance, assay free base mean and purity mean, water, IR and XRPD. Appearance was determined by visual inspection. The product should be a white or off-white powder. Water content was determined according to USP <921> coulometric method. Identification of 6-(4-(tert-butyl)phenoxy)pyridin-3-amine monohydrochloride by IR spectroscopy was done according to USP <197>, comparing the spectrum obtained to that of the reference standard. X-Ray powder diffraction (XRPD) was performed according to USP <941> against the reference XRPD spectrum. Purity and assay of free base was done by HPLC-UV. Two methods were used. Mobile phases in the first method were water and acetonitrile. Mobile phases in the second method were water (0.5 mL of trifluoroacetic acid was added to 1000 mL of water) and acetonitrile (0.4 mL of trifluoroacetic acid was added to 1000 mL of acetonitrile). Equipment and chromatographic conditions for identification and determination of purity and assay of the 6-(4-(tert-butyl)phenoxy)pyridin-3-amine monohydrochloride by HPLC-UV according to the first method and the second method, respectively, are shown in Tables 5 and 6. [table] [table]

[3] = Accelerated stability study, storage 40° C., 75% rh; details: 6 months stability studies
Experimental: as §1

[4] = 6 months stability studies, 3 mths
[5] = 6 months stability studies, 6 mths
[6] = 6 months stability studies, Release data
[7] = 36 months stability studies, 6 mths
[8] = 36 months stability studies, 9 mths
[9] = 36 months stability studies, 12 mths
[10] = 36 months stability studies, 18 mths
[11] = 36 months stability studies, 24 mths

Structure (SMILES): CC(C)(C)c1ccc(Oc2ccc(N)cn2)cc1.Cl [6-(4-(tert-butyl)phenoxy)pyridin-3-amine monohydrochloride]
- stability in solid state ([1]; 100° C.): stable
- changes in the purity and the purity profile ([1]; solid state, after 68 h storage at 100° C.): No significant changes
- decrease in the assay ([1]; solid state, storage at 100° C., accepted variability of the method ±2%): ≤ 2%
- Assay free base, mean [2, 4]: 86.1 % m/m
- IR, conforms to reference [2, 4]: complies
- Purity, mean [2, 4]: 99 % area
- Water [2, 4]: 0.02 % m/m
- Assay free base, mean [2, 5]: 87.3 % m/m
- IR, conforms to reference [2, 5]: complies
- Purity, mean [2, 5]: 99 % area
- Water [2, 5]: 0.02 % m/m
- Assay free base, mean [2, 6]: 89.4 % m/m
- IR, conforms to reference [2, 6]: complies
- Purity, mean [2, 6]: 100 % area
- Water [2, 6]: 0.01 % m/m
- Water ([2]; 36 months stability studies, 3 mths): 0.02 % m/m
- Assay free base, mean [2, 7]: 87.4 % m/m
- Purity, mean [2, 7]: 100.0 % area
- Water [2, 7]: 0.02 % m/m
- Assay free base, mean [2, 8]: 88.6 % m/m
- Purity, mean [2, 8]: 100.0 % area
- Water [2, 8]: 0.03 % m/m
- Assay free base, mean [2, 9]: 87.5 % m/m
- Purity, mean [2, 9]: 100.0 % area
- Water [2, 9]: 0.02 % m/m
- Assay free base, mean [2, 10]: 87.4 % m/m
- Purity, mean [2, 10]: 100.0 % area
- Water [2, 10]: 0.01 % m/m
- Assay free base, mean [2, 11]: 87.4 % m/m
- Purity, mean [2, 11]: 100.0 % area
- Water [2, 11]: 0.02 % m/m
- Water ([2]; 36 months stability studies, Release data): 0.01 % m/m
- Assay free base, mean ([3]; 3 mths): 89.2 % m/m
- IR, conforms to reference ([3]; 3 mths): complies
- Purity, mean ([3]; 3 mths): 99.6 % area
- Water ([3]; 3 mths): 0.01 % m/m
- Assay free base, mean ([3]; 6 mths): 87.4 % m/m
- IR, conforms to reference ([3]; 6 mths): complies
- Purity, mean ([3]; 6 mths): 98.9 % area
- Water ([3]; 6 mths): 0.02 % m/m
- XRPD, conforms to reference ([3]; 6 mths): complies
- Assay free base, mean ([3]; Release data): 87.0 % m/m
- IR, conforms to reference ([3]; Release data): complies
- Purity, mean ([3]; Release data): 99.2 % area
- Water ([3]; Release data): 0.02 % m/m
